How the values were obtained:
[1] = system: EV-D68 US/MO/14-18947; assay: Immunofluorescence assay; format: cell-based, enterovirus D68; conditions: at 50 μM, SH-SY5Y cells, positive control
[2] = system: EV-D68 US/KY/14-18953; assay: CPE assay, EV-D68 US/KY/14-18953 in RD cells; format: cell-based, enterovirus D68; conditions: vs 7a
[3] = target: CVB3 2C protein (Coxsackievirus B3, UniProt P03313); format: binding; conditions: 7d at 10, 30, 100 and 300 μM
[4] = system: EV-D68 2C-D183V mutant; format: binding; conditions: 7d at 100 μM
[5] = system: EV-D68 2C-D183V/D323G double mutant; format: binding; conditions: 7d at 100 μM
[6] = system: EV-A71 2C protein; format: binding; conditions: 7d at 10, 30, 100 and 300 μM
[7] = system: EV-D68 2C-D323G mutant; format: binding; conditions: 7d at 100 μM
[8] = system: EV-D68 and EV-A71 strains; assay: organism not typed; format: cell-based; conditions: for EC50: RD, read-out: EC50 values against all EV-D68 and EV-A71 strains tested; for selectivity index over all EV-D68 and EV-A71 strains tested: strains of Table 2, RD cells
[9] = system: EV-D68 US/MO/14-18947; assay: Plaque assay, EV-D68 US/MO/14-18947 in RD cells; format: cell-based, enterovirus D68; conditions: at 3 μM, positive control

Compound | improvement in antiviral efficacy compared to the original hit 7a against EV-D68 virus [2] | EC50 [8] [nM] | other results
Cc1cc(CCCOc2c(C)cc(-c3noc(C(F)(F)F)n3)cc2C)on1 [pleconaril] |  |  | viral replication (VP1 fluorescence signal) [1]: completely abolished viral replication
CC(C)n1ncc2c(C(=O)NC3CCN(C)C3)cc(C3CC3)nc21 (stereo not drawn) [7g, 6-cyclopropyl-N-(1-methylpyrrolidin-3-yl)-1-(propan-2-yl)-1H-pyrazolo[3,4-b]pyridine-4-carboxamide] | more than 100 fold |  | 
CC(C)n1ncc2c(C(=O)NCCN3CCCC3)cc(C3CC3)nc21 [7b, 6-cyclopropyl-1-(propan-2-yl)-N-[2-(pyrrolidin-1-yl)ethyl]-1H-pyrazolo[3,4-b]pyridine-4-carboxamide] | more than 100 fold |  | 
CC(CN(C)C)NC(=O)c1cc(C2CC2)nc2c1cnn2C(C)C (stereo not drawn) [7f, 6-cyclopropyl-N-[1-(dimethylamino)propan-2-yl]-1-(propan-2-yl)-1H-pyrazolo[3,4-b]pyridine-4-carboxamide] | more than 100 fold |  | 
CC(C)n1ncc2c(C(=O)NCCN(C)C)cc(C3CC3)nc21 [7d, 6-cyclopropyl-N-[2-(dimethylamino)ethyl]-1-(propan-2-yl)-1H-pyrazolo[3,4-b]pyridine-4-carboxamide] | more than 100 fold | 40 to 100 | binding to CVB3 2C protein [3]: dose-dependent binding; ΔTm, 2C-D183V mutant [4]: 0.01 °C; ΔTm, 2C-D183V/D323G double mutant [5]: 0.61 °C; binding to EV-A71 2C protein [6]: dose-dependent binding; ΔTm, 2C-D323G mutant [7]: 3.92 °C
CCC[C@H](NC(=O)[C@@H]1[C@H]2CCC[C@H]2CN1C(=O)[C@@H](NC(=O)[C@@H](NC(=O)c1cnccn1)C1CCCCC1)C(C)(C)C)C(=O)C(=O)NC1CC1 [Telaprevir] |  |  | inhibition of plaque formation [9]: complete inhibition of plaque formation
Cc1cc(C(=O)NCCN(C)C)c2c(C)nn(C(C)(C)C)c2n1 [compound 19, 1-tert-butyl-N-[2-(dimethylamino)ethyl]-3,6-dimethyl-1H-pyrazolo[3,4-b]pyridine-4-carboxamide] |  | 400 to 7400 | 
CNCCNC(=O)c1cc(C2CC2)nc2c1cnn2C(C)C [7h, 6-cyclopropyl-N-[2-(methylamino)ethyl]-1-(propan-2-yl)-1H-pyrazolo[3,4-b]pyridine-4-carboxamide] | more than 100 fold | 60 to 300 | selectivity index over all EV-D68 and EV-A71 strains tested [8]: over 700
CC(C)c1cc(C(=O)NCCN(C)C)c2cnn(C(C)C)c2n1 [10a, N-[2-(dimethylamino)ethyl]-1,6-bis(propan-2-yl)-1H-pyrazolo[3,4-b]pyridine-4-carboxamide] |  | 60 to 300 | selectivity index over all EV-D68 and EV-A71 strains tested [8]: over 700

— article PMC9179928 (Journal of medicinal chemistry, 2021)
